From patent US9012505B2, “Antimicrobial compounds and uses thereof” (priority 2010, dated 2015)
Entries after “also recorded” stand apart in the source; their conditions may differ.

Experiments:
[1] = tested on: Xanthomonas campestris strain 8004dF; assay: Biofilm assay (Xcc biofilm dispersal, cell aggregates by phase contrast microscopy); assay type: cell-based; details: YEB medium
Experimental: For analysis of biofilm formation, a single colony of Xanthomonas campestris strain 8004dF (He et al., 2006) was inoculated and grown overnight at 28° C. in 5 ml of YEB medium. The bacterial cells in culture were visualized with a phase contrast microscope (Olympus BX50) and photographs were taken with an Olympus DP70 digital camera.
Given its structural similarity to DSF (Wang et al., 2004), which is known to regulate biofilm dispersal (Dow et al., 2003; He et al., 2006), MDEA was tested for its ability to promote Xcc biofilm dispersion. The Xcc DSF mutant ΔrpfF, which formed extensive cell aggregates (biofilm) in YEB medium (FIG. 2a), was used in this assay.

[2] = tested on: PexsCEBA-lacZ (T3SS reporter strain); assay: T3SS reporter PexsCEBA-lacZ β-galactosidase activity; assay type: cell-based, Pseudomonas aeruginosa; details: LB medium with 10 mM NTA, OD600 about 1.5
Description: The promoter of exsCEBA was amplified by PCR using the primer pairs pC-F/pC-R ((5′-[…] (SEQ ID NO: 3)/5′-ggggcgcctcctaaagctc (SEQ ID NO: 4)), and cloned into the integration vector mini-CTX-lacZ (Zhou et al., 2007; Hoang et al., 2000; Becher and Schweizer, 2000). The construct was introduced into E. coli S17-1(λpir) and then integrated into the chromosome of P. aeruginosa as described previously (Hoang et al., 2000). The P. aeruginosa transconjugants were then selected on LB agar plates containing 100 μg/ml tetracycline and used as the T3SS reporter strain.
For determination of the inhibitory activity against T3SS, MDEA was added to the LB medium supplemented with 10 mM NTA before inoculation of the T3SS reporter strain. After incubation at 37° C. till OD600 reached about 1.5, the bacterial cells were harvested by centrifugation to measure the β-galactosidase activities following the method previously described (Jeffrey, 1992).
Type III secretion system (T3SS) is a major virulence determinant conserved in many Gram-negative bacterial pathogens. To test the ability of MDEA on regulation of T3SS gene expression in Pseudomonas aeruginosa, the T3SS reporter construct PexsCEBA-lacZ (Zhou et al., 2007) was used. The promoter PexsCEBA directs the expression of the T3SS master regulator ExsA, which positively controls the expression of all T3SS genes in P. aeruginosa (Yahr and Wolfgang, 2006; Frank, 1997).

exsC = assay: Semi-quantitative RT-PCR of T3SS gene expression; assay type: cell-based, Pseudomonas aeruginosa; details: MDEA treatment, concentration not given
Experimental: Bacteria were grown in LB medium supplemented with 10 mM NTA at 37° C. with shaking (250 rpm) overnight were diluted to an OD600 of 0.05 in fresh LB medium and grown under the same conditions to an OD600 of 1.5. RNA samples were isolated using the RNeasy mini kit according to the manufacturer's instructions (Qiagen). The concentration and purity of RNA were determined by spectrometry and agarose gel electrophoresis. RT-PCR analysis was performed using the One-step RT-PCR kit according to the manufacturer's instructions (Qiagen) with the primer pairs RT-C—F/RT-C—R ((5′-[…] (SEQ ID NO: 5), 5′-[…] (SEQ ID NO: 6)).
The effect of MDEA on inhibition of T3SS was further analyzed by semi-quantitative RT-PCR. […] The data are consistent with the results based on the T3SS reporter (FIG. 3a).

[3] = tested on: C. albicans strain SC5314; assay: Candida albicans germ tube formation (morphological transition); assay type: cell-based; details: 37° C., 3 h, solvent control about 70%
Experimental: C. albicans strain SC5314 was incubated at 28° C. for overnight with shaking in the GMM medium consisting of 6.7 g of Bacto yeast nitrogen base (Difco) and 0.2% glucose (pH 7.2). C. albicans cells proliferate in yeast form under these conditions. The yeast cells were then diluted 20-fold in fresh GMM medium with or without MDEA. The cells were induced for 3 h at 37° C. Visualization and quantification of germ tube formation were performed using a phase contrast microscope (Olympus BX50) by counting about 400 C. albicans cells. The experiment was repeated twice, and the imaging was done with an Olympus DP70 digital camera.
Candida albicans is a fungal pathogen responsible for various forms of candiasis ranging from mucosal damages to serious systemic infections. It normally exists as a yeast but can form germ tubes (mycelia) under certain environmental conditions including human body temperature and serum. This morphological transition ability is critical for the fungal pathogen to establish infections. Mutants defective in morphological transitions are avirulent and unable to cause infections (Lo et al., 1997; Braun et al., 2000; Saville et al., 2003; Zheng et al., 2003). […] MDEA represents another structurally different unsaturated fatty acid. To determine its potential inhibitory activity MDEA was added to medium at various concentrations before inoculation of the fungal yeast cells, using methanol as a solvent control. After incubation at 37° C. for 3 h, about 70% of C. albicans cells in solvent control formed germ tubes (FIG. 4). In contrast, less than 30% and 5% of yeast cells could germinate in the presence of 0.5 or 5 μM of MDEA (FIG. 4). When the concentration was increased to 25 μM, the germ tube formation was reduced to 0.17% (FIG. 4).

CC(C)CCCCC=CC/C=C\C(=O)O [MDEA, cis-11-methyldodeca-2,5-dienoic acid]
Effect on cell aggregates (biofilm) of Xcc DSF-deficient mutant ([1]; 1 μM MDEA): inhibited 8004dF biofilm formation; also recorded: eliminated most of the cell aggregates
Effect on cell aggregates (biofilm) of Xcc DSF-deficient mutant ([1]; 5 μM MDEA): inhibited 8004dF biofilm formation; also recorded: all the cell aggregates disappeared
reduction of PexsCEBA-lacZ activity ([2]; 5 μM MDEA): 64.1%
reduction of PexsCEBA-lacZ activity ([2]; 10 μM MDEA): 68.5%
reduction of PexsCEBA-lacZ activity ([2]; 25 μM MDEA): 74.4%
reduction in transcriptional expression of exsC (exsC): about 60%
yeast cells that germinate (germ tube formation) ([3]; 0.5 μM MDEA): less than 30%
yeast cells that germinate (germ tube formation) ([3]; 5 μM MDEA): < 5%
germ tube formation ([3]; 25 μM MDEA): 0.17%
